From publication PMC7508583, “Discovery and Preclinical Development of Antigiardiasis Fumagillol Derivatives” (Antimicrobial Agents and Chemotherapy, 2020)
Like-named read-outs stand apart in the source and are kept apart here.

Tests used:
human MetAP2 = molecular target: T1, human MetAP2 (Homo sapiens, UniProt P50579); test: MetAP2 fluorescence assay; assay type: biochemical; details: for IC50 of compound/IC50 of fumagillin: human MetAP2
T1 construct: purchased Bio-Techne/R&D Systems
Description: Based on the available crystal structures of MetAP2 complexes, the fumagillol core binds in a crowded environment, forming exquisite electrostatic interactions. Therefore, there is little room for the core fumagillol scaffold to adopt a different mode of binding. In contrast, the R group at C-6 can vary substantially because it is mostly solvent exposed. The L groups bind in a narrow site at the active-site entrance.
Recombinant human MetAP2 (Bio-Techne/R&D Systems) was diluted to 10 μg/ml in the assay buffer (50 mM HEPES, 0.1 mM CoCl2, 100 mM NaCl, pH 7.5). The substrate H-Met-Gly-Pro-7-amido-4-methylcoumarin (Bio-Techne/R&D Systems) was diluted to 500 μM with 2 μg/ml of the coupling enzyme, recombinant human dipeptidyl peptidase 4 (Bio-Techne/R&D Systems), in assay buffer. Fifty microliters of 10-μg/ml recombinant human MetAP2 was loaded into a flat-bottom black 96-well plate (Greiner Bio), and the reaction was initiated by adding 50 μl of the substrate/dipeptidyl peptidase 4 mixture. The reaction mixture was incubated at room temperature for 10 min, and the fluorescence was measured for 5 min at excitation and emission wavelengths of 380 nm and 460 nm, respectively, in the kinetic mode. For IC50 determination, 0.5 μl inhibitor solution was added to the reaction mixture. […] The reaction rates were fitted to a 4-parameter logistic nonlinear regression model using the KaleidaGraph tool, yielding the IC50 values and standard error.

Caco-2 cell monolayers = test: in vitro; details: human, Caco-2, 120 min, 10 µM, pH 7.4
Text: (§1) Next, we tested the permeation of the compounds across polarized Caco-2 cell monolayers, a method that is widely used as an in vitro model of the human small intestinal mucosa to predict the absorption of orally administered drugs ([63], [64]). With noninvasive intestinal infections, there is no need to establish a high plasma concentration. Since a high rate of uptake through the host gut lining could increase compound toxicity, we sought to reduce gut absorption. […] Both apical-to-basal and basal-to-apical permeation values were measured to obtain information about efflux. […] The efflux machinery is currently unknown.
(§2) Passage 36 Caco-2 cells were used. The cells were cultured in Dulbecco’s modified Eagle’s medium (DMEM; 5 ml of 100 mM sodium pyruvate, 5 ml of 100× nonessential amino acids, 5 ml of penicillin-streptomycin, and 100 ml of heat-inactivated fetal bovine serum added to 385 ml of DMEM aseptically and mixed thoroughly), pH 7.4, at 37°C in 5% CO2. DMEM (250 μl) was added to the basal compartment of 96-well multiscreen Caco-2 cell plate consisting of high-pore-density polycarbonate (Millipore) with a 0.4-μm pore size and a 0.11-cm^2 active membrane area. The cells were seeded at a density of 12,000 cells/well (0.16 × 10^6 cells/ml) in the apical wells, with one well containing only medium as blank. The Caco-2 cell plate was placed in a CO2 incubator at 37°C for cell proliferation. On the day of assay, the medium was removed, washed twice with Hanks balanced salt solution (HBSS) buffer supplemented with 2% bovine serum albumin (BSA), pH 7.4, and incubated with the HBSS buffer for 30 min at 37°C. Wells with transepithelial electrical resistance values of greater than 230 Ω · cm^2 were selected for the experiments. […] The assay was performed in duplicate.
(§3) Seventy-five microliters of the test compounds was added to the apical wells, and 250 μl of HBSS buffer with 2% BSA was added to the basal wells. The plate was incubated in a CO2 incubator with shaking on a plate shaker at 150 rpm for 120 min, after which 25 μl of the basal samples was collected and processed.
(§4) Two hundred fifty microliters of test compounds was added to the basal wells, and 75 μl of HBSS buffer with 2% BSA was added to the apical wells. The plate was incubated in a CO2 incubator with shaking on a plate shaker at 150 rpm for 120 min, after which 25 μl of the apical samples was collected and processed.
(§5) For sample processing, a single-point calibration curve in HBSS buffer with 2% BSA was used. Donor samples were diluted 1:1 with HBSS containing 2% BSA, and receiver samples were diluted with 1:1 HBSS buffer and precipitated with 200 μl of acetonitrile containing internal standard. The samples were vortexed for 5 min at 1,000 rpm and centrifuged at 4,000 rpm for 10 min. One hundred microliters of the supernatant was diluted with 200 μl of water and analyzed by LC-MS/MS (with a Shimadzu ultrafast liquid chromatograph and an API 4000 LC-MS/MS system).
(§6) The apparent permeation coefficients (Papp) were calculated as Papp = (dQ/dT) × (1/C0) × (1/A), where dQ is the amount permeated to the receiver compartment of the 96-well plate, dT is the time of compound incubation, C0 is the initial compound concentration in the donor compartment of the well, and A is the surface area of the monolayer.

in vitro = details: human; for efflux ratio at 120 min, 10 µM: Caco-2, pH 7.4; for Papp at 120 min, 10 µM: Caco-2, pH 7.4, Mean ± SE Papp
Text: as §1, §2, §3, §4, §5, §6

pH 3 degradation test = assay type: physicochemical
Description: The dramatic improvement in stability is not surprising, because the ester group of fumagillin is susceptible to hydrolysis at low pH. […] This should enable the administration of lower doses, reducing toxicity risks.
For accelerated temperature degradation tests at 75% relative humidity and at laboratory uncontrolled relative humidity, fumagillin and compounds 3 and 9 were incubated at 37°C under either controlled or uncontrolled humidity, and the samples were analyzed by HPLC every week for 4 weeks. Measurements were made in duplicate. Area-under-the-curve values were calculated to derive the percentage of compound remaining. For pH degradation, the compounds were dissolved in DMSO and mixed with pH 3.0 buffer. The samples were incubated at 25°C for up to 48 h. Samples were analyzed by HPLC every 2 h for the first 8 h and then after 24 and 48 h.

[1] = recombinant human MetAP2, fluorescence assay, read-out: Mean ± SE IC50, inhibition of human MetAP2

T1 sequence (P50579 whole entry): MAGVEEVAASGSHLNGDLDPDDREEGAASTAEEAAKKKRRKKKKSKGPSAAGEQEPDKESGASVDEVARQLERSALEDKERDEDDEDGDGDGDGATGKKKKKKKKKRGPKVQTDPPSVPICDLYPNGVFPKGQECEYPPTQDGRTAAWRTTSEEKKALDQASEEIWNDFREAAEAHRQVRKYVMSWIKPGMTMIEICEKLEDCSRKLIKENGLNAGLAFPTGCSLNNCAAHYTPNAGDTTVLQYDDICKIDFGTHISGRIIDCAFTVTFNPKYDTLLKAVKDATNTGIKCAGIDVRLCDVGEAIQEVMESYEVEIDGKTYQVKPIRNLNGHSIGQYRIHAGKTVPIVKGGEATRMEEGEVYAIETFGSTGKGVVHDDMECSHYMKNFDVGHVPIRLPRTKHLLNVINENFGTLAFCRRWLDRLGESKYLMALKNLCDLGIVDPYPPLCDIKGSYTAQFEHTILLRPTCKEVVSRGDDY

SMILES	IC50 of compound/IC50 of fumagillin (human MetAP2)	IC50 (human MetAP2; [1]) [pM]	Caco-2 cell permeation as % of the permeation of fumagillin (Caco-2 cell monolayers) [%]	efflux ratio at 120 min, 10 µM (in vitro)	Papp at 120 min, 10 µM (in vitro; apical to basal) [×10⁻⁶ cm/s]	Papp at 120 min, 10 µM (in vitro; basal to apical) [×10⁻⁶ cm/s]	half-life (pH 3 degradation test; buffer, pH 3) [h]	IC50 (human MetAP2) [pM]	Papp at 120 min, 10 µM (in vitro; apical to basal, Caco-2, 10 μM, 120 min) [×10⁻⁶ cm/s]	Papp at 120 min, 10 µM (in vitro; basal to apical, Caco-2, 10 μM, 120 min) [×10⁻⁶ cm/s]	half-life (pH 3 degradation test; pH 3.0 buffer, pH 3, 25°C, read-out: Mean ± SE half-life at pH 3 and 25°C (converted)) [h]
COC1C(OC(=O)NC(=O)CN2CCOCC2)CCC2(CO2)C1C1(C)OC1CC=C(C)C (stereo not drawn) [Compound 3]	1.68	670 ± 20	62	1.95	15.8 ± 0.94	30.4 ± 4.35	17.2 ± 2.26	–	–	–	–
CO[C@@H]1[C@H](OC(=O)Nc2ccc(C(=O)O)cc2)CC[C@]2(CO2)[C@H]1[C@@]1(C)O[C@@H]1CC=C(C)C [Compound 9, 4-(((((3R,4S,5S,6R)-5-methoxy-4-((2R,3R)-2-methyl-3-(3-methylbut-2-en-1-yl)oxiran-2-yl)-1-oxaspiro[2.5]octan-6-yl)oxy)carbonyl)amino)benzoic acid]	–	–	53	–	12.6 ± 0.63	23.6 ± 8.14	43.2 ± 1.45	1100 ± 300	–	–	–
CO[C@@H]1[C@H](OC(=O)/C=C/C=C/C=C/C=C/C(=O)O)CC[C@]2(CO2)[C@H]1[C@@]1(C)O[C@@H]1CC=C(C)C [Fumagillin, reference compound]	1	400 ± 30	–	2.13	–	–	–	–	23.7 ± 2.52	48.8 ± 9.13	1.42 ± 0.05
